Laboratory results reported in ChEMBL document CHEMBL3045863, “The direct toxicity of BABA against grapevine ecosystem organisms” (2009).
The source made the active and inactive calls. The calls are words filed in the database; no cut-off is given here.

How the values were obtained:
Botrytis cinerea [1] = experiment: Antifungal activity against Botryotinia fuckeliana T4 assessed as inhibition of mycelial growth 2.4 mM at pH 4 after 5 days; assay type: functional
Saccharomyces cerevisiae [2] = experiment: Antifungal activity against Saccharomyces cerevisiae BW15 assessed as reduction of doubling time at 0.001 to 100 mM; assay type: functional, organism-based
Saccharomyces cerevisiae [3] = experiment: Antifungal activity against Saccharomyces cerevisiae FL100 ATCC 28383 assessed as reduction of doubling time at > 10 mM; assay type: functional, organism-based
Botrytis cinerea [4] = experiment: Antifungal activity against Botryotinia fuckeliana T4 assessed as inhibition of spore germination after 5 days; assay type: functional, organism-based
Saccharomyces cerevisiae [5] = experiment: Antifungal activity against Saccharomyces cerevisiae 58W3D4 assessed as reduction of doubling time at 0.001 to 100 mM; assay type: functional, organism-based
Botrytis cinerea [6] = experiment: Antifungal activity against Botryotinia fuckeliana T4 assessed as inhibition of mycelial growth after 5 days; assay type: functional, organism-based
Botrytis cinerea [7] = experiment: Antifungal activity against Botryotinia fuckeliana T4 assessed as inhibition of mycelial growth 2.4 mM at pH 7 after 5 days; assay type: functional

CC(N)CC(=O)O (racemic)
inhibition (INH) (Botrytis cinerea [1]): 100%
Activity (Saccharomyces cerevisiae [2]): inactive
Activity (Saccharomyces cerevisiae [3]): Active
inhibition (Botrytis cinerea [4]): Dose-dependent effect
Activity (Saccharomyces cerevisiae [5]): inactive
inhibition (Botrytis cinerea [6]): Dose-dependent effect
inhibition (INH) (Botrytis cinerea [7]): 40%
